Read-outs that look alike come from different tables or passages of the source.
Columns and labels:
[1] = target: T1, CYP17 (human testicular microsome) (Homo sapiens, UniProt P05093); assay: CYP17 enzymatic assay (IC50) (Biological Example 4); type: biochemical; conditions: human testicular microsome
T1 construct: using microsomal fraction from human testis (Celsis Cat #S00110) as the enzyme source; tissue Celsis S00110; host or cells: human testis microsomal fraction
T1 sequence (P05093 1-508): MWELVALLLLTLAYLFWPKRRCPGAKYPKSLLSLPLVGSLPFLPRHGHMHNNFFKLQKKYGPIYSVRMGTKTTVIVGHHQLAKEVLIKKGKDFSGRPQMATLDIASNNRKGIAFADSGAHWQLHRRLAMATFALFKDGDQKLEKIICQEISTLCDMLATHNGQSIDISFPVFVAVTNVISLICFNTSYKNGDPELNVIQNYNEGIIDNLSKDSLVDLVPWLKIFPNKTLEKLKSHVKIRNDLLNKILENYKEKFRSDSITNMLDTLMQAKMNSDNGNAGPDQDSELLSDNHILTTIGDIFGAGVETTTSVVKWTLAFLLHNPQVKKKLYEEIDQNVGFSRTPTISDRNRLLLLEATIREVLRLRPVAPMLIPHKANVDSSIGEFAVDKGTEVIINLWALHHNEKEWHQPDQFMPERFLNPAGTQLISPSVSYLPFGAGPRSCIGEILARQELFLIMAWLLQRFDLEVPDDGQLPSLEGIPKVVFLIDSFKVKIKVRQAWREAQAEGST

[2] = target: T1, CYP17 (human testicular microsome); assay: CYP17 enzymatic assay (% inhibition at 10 nM), version 1 (Biological Example 5); type: biochemical; conditions: 10 nM compound, DHEA by ELISA, read-out: Biological Example No. 5: CYP17 percent inhibition at 10 nM (version 1)
[3] = target: T2, Cyp21 enzyme (Human HEK 293-Cyp21 stable transfected cells) (Homo sapiens, UniProt P08686); assay: CYP21-HEK293 enzymatic assay (% inhibition at 100 nM) (Biological Example 10); type: cell-based; conditions: HEK 293-Cyp21 cells
T2 construct: expressed in transfected cells
T2 sequence (P08686 1-495): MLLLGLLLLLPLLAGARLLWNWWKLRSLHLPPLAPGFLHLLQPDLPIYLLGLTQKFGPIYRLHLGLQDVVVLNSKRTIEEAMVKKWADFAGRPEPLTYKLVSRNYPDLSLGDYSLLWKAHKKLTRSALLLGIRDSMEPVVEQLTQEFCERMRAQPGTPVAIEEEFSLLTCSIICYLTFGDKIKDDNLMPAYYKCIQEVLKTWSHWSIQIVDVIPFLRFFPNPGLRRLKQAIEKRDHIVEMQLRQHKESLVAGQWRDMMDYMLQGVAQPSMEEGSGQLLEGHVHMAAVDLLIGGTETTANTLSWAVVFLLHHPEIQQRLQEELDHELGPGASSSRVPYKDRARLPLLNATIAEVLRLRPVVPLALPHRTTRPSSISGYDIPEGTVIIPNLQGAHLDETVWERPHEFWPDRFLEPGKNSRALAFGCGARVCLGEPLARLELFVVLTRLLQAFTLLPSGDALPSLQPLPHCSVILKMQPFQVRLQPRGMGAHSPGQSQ
Experimental: Proceeding using methods similar to those described in Biological Example 11, the percent inhibition at 100 nM was measured.
This assay was used to determine compound activity against Cyp21 enzyme. Human HEK 293-Cyp21 stable transfected cells (maintained in complete growth media DMEM+10% FBS, supplemented with 125 ug/mL Hygromycin) were seeded in a 96-well plate at 20,000 cells/well/100 uL in DMEM plus 10% FBS and allowed to attach overnight. The next day, 20 μL medium was carefully removed and 10 μL of 10× pre-made compounds in DMEM+10% FBS+10% methanol was transferred to the wells to final concentrations of 1000, 100, 10, 1, or 0.1 nM. Mock treatment was 1% methanol in growth media and the cells were left at 37° C., 5% CO2 for 5 hr. After the incubation, 10 μL of substrate progesterone (Sigma) was added to the wells to make a final concentration of 10 μM. The cells were incubated the cells at 37° C. for 20 hr. At the end of incubation, 90 μL of conditioned media was removed to measure DOC level by ELISA.
Preparation of the DOC ELISA: 100 μL of coating buffer (0.025M PBS pH 7.4) containing 200 ng/mL DOC-3-carboxymethyloxime-BSA (Steraloids. inc, Cat#3469-000) was added to each well of a 96-well plate and incubated overnight at 4° C. The next day, the plates were washed twice with 250 μl of wash solution (0.015M PBS pH 7.4 containing 0.05% Tween 20). After being washed, the wells were blocked with 250 μL blocking buffer (3% BSA in 0.025M PBS, pH 7.4) at 37° C. for 2 h. The plates were washed again 3 times as before, and then 90 μL of sample /standards (prepared in complete growth media) was added into the appropriate wells followed by 10 μL of antibody solution (1:450 rabbit anti-DOC in 0.6% BSA/PBS). The plates were incubated at room temperature for 2 h on a shaker. The contents of the wells were removed and the plate was washed 4 times. After the final wash, 100 μL of secondary antibody (1:12000 HRP-goat-anti-rabbit IgG conjugate 0.6% BSA/PBS) was added into each well. The plate was incubated at 30° C. for 45 min. The plate was washed again 4 times and 100 μL of TMB substrate solution was added to each well. The plate was incubated at room temperature for 10 min. 100 μL of stop solution was added to each well and the optical density was read at 450 nm.
The mean absorbance value for each sample was used to determine the corresponding concentration from the standard curve. Data was analyzed with “log(antagonist) vs response variable slope” under “non-linear regression analysis” using Prism5 software.

[4] = system: rat Cyp11B enzyme (rat adrenal mitochondria); assay: CYP11B enzymatic assay (% inhibition at 100 nM) (Biological Example 9); type: biochemical; conditions: for Biological Example No. 9: CYP11B percent inhibition at 100 nM: 100 nM compound, cortisol by ELISA; for CYP11B enzymatic assay % inhibition at 100 nM (Biological Example No. 9): compound at 100 nM
Outline: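 Sprague Dawley rat adrenal mitochondria were incubated with compound at 100 nM, 0.5 mM NADPH and 0.1 μM 11-deoxycortisol (pH 7.4 Tris buffer) for 60 min at 37 °C. Cortisol was measured by ELISA and corrected by subtracting the no-NADPH background. % inhibition is relative to the no-compound reaction.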

[5] = Human liver microsome stability assay (Biological Example 8b); conditions: liver microsomes, pH 7.4
[6] = target: T1, CYP17 (human testicular microsome); assay: CYP17 enzymatic assay (% inhibition at 1 nM) (Biological Example 12); type: biochemical; conditions: compound at 1 nM, read-out: CYP17 enzymatic assay % inhibition at 1 nM (Biological Example No. 12)
[7] = DHEA by ELISA, read-out: Biological Example No. 4: CYP17 enzymatic assay IC50
[8] = 100 nM compound, read-out: Biological Example No. 10: CYP21-HEK293 percent inhibition at 100 nM
[9] = read-out: CYP17 enzymatic assay IC50 (Biological Example No. 4)
[10] = compound at 100 nM, read-out: CYP21-HEK293 enzymatic assay % inhibition at 100 nM (Biological Example No. 10)

Row | SMILES | IC50 [1, 7] | inhibition at 0.01 µM [2] | inhibition at 0.1 µM [3, 8] | Biological Example No. 9: CYP11B percent inhibition at 100 nM [4] | half-life at 1 μM [5] | IC50 [1, 9] | inhibition at 0.001 µM [6] | inhibition at 0.1 µM [3, 10] | CYP11B enzymatic assay % inhibition at 100 nM (Biological Example No. 9) [4]
1 | C[C@]12CCCCC1C(=O)C[C@@H]1[C@@H]2CC[C@]2(C)C(n3ccnc3)=CC[C@@H]12 (stereo partly drawn) [Compound 88, (10R,13S)-17-(1H-imidazol-1-yl)-10,13-dimethyl-2,3,4,5,7,8,9,11,12,13,14,15-dodecahydro-1H-cyclopenta[a]phenanthren-6(10H)-one] | < 11 nM | > 80% | < 30% | T (T means the compound had a percent inhibition of less than 32% when tested at 100 nM) |  |  |  |  | 
2 | C[C@]12CCC(NC(=O)C3CC3)CC1=CCC1C2CC[C@]2(C)C(n3ccnc3)=CCC12 (stereo partly drawn) [Compound 238, N-((10R,13S)-17-(1H-imidazol-1-yl)-10,13-dimethyl-2,3,4,7,8,9,10,11,12,13,14,15-dodecahydro-1H-cyclopenta[a]phenanthren-3-yl)cyclopropanecarboxamide] |  |  |  |  | 1 to 50 min | < 11 nM | > 50% | < 30% | U (U means the compound had a percent inhibition of greater than or equal to 32%)
3 | COC(=O)NC1CC[C@@]2(C)C(=CCC3C2CC[C@]2(C)C(n4ccnc4)=CCC32)C1 (stereo partly drawn) [Compound 239, methyl ((10R,13S)-17-(1H-imidazol-1-yl)-10,13-dimethyl-2,3,4,7,8,9,10,11,12,13,14,15-dodecahydro-1H-cyclopenta[a]phenanthren-3-yl)carbamate] |  |  |  |  |  | < 11 nM | > 50% | < 30% | T (T means the compound had a percent inhibition of less than 32% when tested at 100 nM)
4 | CC(=O)N[C@@H]1CC[C@@]2(C)C(=CC[C@H]3C4=CC=C(n5ccnc5)[C@@]4(C)CC[C@@H]32)C1 [Compound 245, N-((3R,10R,13S)-17-(1H-imidazol-1-yl)-10,13-dimethyl-2,3,4,7,8,9,10,11,12,13-decahydro-1H-cyclopenta[a]phenanthren-3-yl)acetamide] |  |  |  |  |  |  | 10 to 50% | < 30% | T (T means the compound had a percent inhibition of less than 32% when tested at 100 nM)
5 | C[C@]12CC[C@H]3[C@@H](CC=C4C[C@H](NC(=O)C5CC5)CC[C@@]43C)C1=CC=C2n1ccnc1 [Compound 246, N-((3R,10R,13S)-17-(1H-imidazol-1-yl)-10,13-dimethyl-2,3,4,7,8,9,10,11,12,13-decahydro-1H-cyclopenta[a]phenanthren-3-yl)cyclopropanecarboxamide] |  |  |  |  |  |  | 10 to 50% | < 30% | U (U means the compound had a percent inhibition of greater than or equal to 32%)

The next lines start with results.

Row | IC50 [1, 7] | inhibition at 0.01 µM [2] | inhibition at 0.1 µM [3, 8] | SMILES | Biological Example No. 9: CYP11B percent inhibition at 100 nM [4] | half-life at 1 μM [5] | IC50 [1, 9] | inhibition at 0.001 µM [6] | inhibition at 0.1 µM [3, 10] | CYP11B enzymatic assay % inhibition at 100 nM (Biological Example No. 9) [4]
6 | < 11 nM | 50 to 80% | < 30% | C[C@]12CC[C@H]3[C@@H](CCN4C(=O)CCCC[C@]34C)[C@@H]1CC=C2c1cccnc1 [Compound 38, (11aR,13aS)-11a,13a-dimethyl-1-(pyridin-3-yl)-3b,4,5,8,9,10,11,11a,11b,12,13,13a-dodecahydro-3H-azepino[2,1-a]cyclopenta[f]isoquinolin-7(3aH)-one] | na (“na” means the compound was not active under the conditions tested) |  |  |  |  | 
7 |  | 1 to 50% | < 30% | C[C@]12CC[C@H]3[C@@H](CCN4CCCCC[C@]34C)[C@@H]1CC=C2c1cccnc1 [Compound 44, (11aR,13aS)-11a,13a-dimethyl-1-(pyridin-3-yl)-3a,3b,4,5,7,8,9,10,11,11a,11b,12,13,13a-tetradecahydro-3H-azepino[2,1-a]cyclopenta[f]isoquinoline] | na (“na” means the compound was not active under the conditions tested) |  |  |  |  | 
8 |  | 1 to 50% | < 30% | CN1CC=C2CC[C@@H]3[C@H](CC[C@]4(C)C(c5cccnc5)=CC[C@@H]34)[C@@]2(C)CC1 [Compound 147, (5aR,7aS)-2,5a,7a-trimethyl-8-(pyridin-3-yl)-2,3,4,5,5a,5b,6,7,7a,10,10a,10b,11,12-tetradecahydrocyclopenta[5,6]naphtho[2,1-c]azepine] | na (“na” means the compound was not active under the conditions tested) |  |  |  |  | 
9 |  | 1 to 50% | < 30% | CN1CC=C2CC[C@@H]3[C@H](CC[C@]4(C)C(n5ccnc5)=CC[C@@H]34)[C@@]2(C)CC1 [Compound 151] | T (T means the compound had a percent inhibition of less than 32% when tested at 100 nM) |  |  |  |  | 
10 |  |  | < 30% | C[C@]12CCC(=O)NC=C1CCC1C2CC[C@]2(C)C(n3cnnn3)=CCC12 (stereo partly drawn) [Compound 156, (5aR,7aS)-5a,7a-dimethyl-8-(1H-tetrazol-1-yl)-4,5,5a,5b,6,7,7a,10,10a,10b,11,12-dodecahydrocyclopenta[5,6]naphtho[2,1-c]azepin-3(2H)-one] | U (U means the compound had a percent inhibition of greater than or equal to 32%) |  |  |  |  | 
11 | < 11 nM | > 80% | ≥ 30% | CN1CC[C@@]2(C)C(=CC1=O)CC[C@H]1C3=CC=C(c4cccnc4)[C@@]3(C)CC[C@@H]12 [Compound 158] | T (T means the compound had a percent inhibition of less than 32% when tested at 100 nM) | 1 to 50 min |  |  |  | 

Reference: patent US20130252930A1 (BIOMARIN PHARMACEUTICAL INC., priority 2010, published 2013)
